Experimental data reported in patent US8802712B2, “Pyrazoloquinolines” (Merck Patent GmbH, priority 2010, dated 2014).
Counter-ions that a name gives are not always drawn. Like-named read-outs stand apart in the source and are kept apart here.

What was measured:
[1] = test system: colorectal carcinoma cell line HCT116; assay: Cellular Colony Growth Test with X-ray irradiation; assay type: cell-based; conditions: Homo sapiens, HCT-116, 4.8 Gy X-rays
Experimental: Cellular Colony Growth Test The colorectal carcinoma cell line HCT116 was cultivated in MEM alpha medium with 10% oif foetal calf serum, 1 mM sodium pyruvate and 2 mM glutamine at 37° C. and 10% CO2. The cells were detached from the base of the culture vessels with the aid of trypsine/EDTA, centrifuged off in centrifuge tubes and taken up in fresh medium. The cell density was subsequently determined. 300 cells were sown out in 6-well cell culture plates in 2 ml of culture medium and cultivated overnight. Next day, the cells were treated with test substances for one hour before the cell culture plates were treated with defined doses of X-rays (in general 0, 2.4, 4.8, 12 Gray; irradiation instrument: Faxitron RX-650; Faxitron X-Ray LLC, USA). In order to determine the dose/effect relationships, the cells were treated with various concentrations of a test substance. After irradiation, the cells are cultivated for a further 24 hours in the presence of the test substance, the culture medium was then replaced with culture medium without test substance, and the cells were cultivated for a further 6-8 days. The cell colonies formed were subsequently stained with the aid of Crystal Violet and counted in a colony counter (Gelcount, Oxford Optronics, UK). Dose/effect curves, in particular IC50 values, were determined using a curve adaptation function for nonlinear dose/effect relationships.

mammal cells = conditions: in cellular terms; cited from earlier work
DNA-PK [2] = molecular target: T1, DNA-PK (Homo sapiens (Human), UniProt P78527); conditions: 5.0 mM ATP; cited from earlier work
[3] = test system: CHK2 phosphorylation at threonine 68 in HCT116 cells; assay: Cellular CHK2 Phosphorylation at Threonine 68; assay type: cell-based; conditions: Homo sapiens, HCT-116, 6 h; HCT116, 10 μM bleomycin, six hours, ELISA; read-out: IC50 (CHK2 phospho-threonine 68)
Experimental: Cellular CHK2 Phosphorylation at Threonine 68
HCT116 cells were cultivated in MEM alpha medium with 10% of foetal calf serum, 1 mM sodium pyruvate and 2 mM glutamine at 37° C. and 10% CO2. The cells were detached from the base of the culture vessels with the aid of trypsine/EDTA, centrifuged off in centrifuge tubes and taken up in fresh medium. The cell density was subsequently determined. 50,000 cells were sown per cavity of a 96-well cell culture plate in 0.1 ml of culture medium and cultivated overnight. Next day, 10 μM bleomycin and test substances in fresh culture medium were added to the cells and these were cultivated for a further six hours. After lysis of the cells, phospho-threonine 68 of the CHK2 kinase was detected in the lysates with the aid of a phospho-CHK2 (Thr68)-specific ELISA detection system (Catalogue No. 7037, Cell Signaling Technologies, USA). The ELISA colour reaction was measured spectrophotometrically at 450 nm. The extinction of the unstimulated controls (vehicle control without bleomycin) was subtracted from the extinction values of the treatment groups. The controls which were treated with bleomycin were set equal to 100% and all other extinction values were set in relation thereto. IC50 values were determined with the aid of the GraphPad Prism statistics program (GraphPad Software, USA) or Assay Explorer (Symyx Technologies Inc., USA).

DNA-PK [4] = molecular target: T1, DNA-PK; assay: DNA-PK/Biochemical Assay (FlashPlate kinase assay); conditions: 5 μM ATP, 90 min, room temperature
Experimental: The kinase assay was carried out in streptavidin-coated […] microtitre FlashPlates®. To this end, 1.5 μg of the DNA-PK/protein complex and 100 ng of biotinylated substrate, such as, for example, […] biotin-NH2 (“biotin-DNA-PK peptide”), in a total volume of 36.5 μl (34.25 mM HEPES/KOH, 7.85 mM Tris-HCl, 68.5 mM KCl, 5 μM ATP, 6.85 mM MgCl2, 0.5 mM EDTA, 0.14 mM EGTA, 0.69 mM DTT, pH 7.4), were incubated at room temperature for 90 min with 500 ng of DNA from calf thymus, 0.1 μCi of 33P-ATP and 1.8% of DMSO per well with or without the test compound. The reaction was stopped using 50 μl/well of 200 mM EDTA. After incubation for a further 30 min at room temperature, the liquid was removed. Each well was washed three times with 100 μl of 0.9% sodium chloride solution. A non-specific reaction (blank value) was determined using 10 μM of a proprietary kinase inhibitor. The radioactivity measurement was carried out by means of a TopCount. IC50 values were calculated in RS1. • Literature: Kashishian et al. (2003) Molecular Cancer Therapeutics 1257.

[5] = test system: kinases of the PI3K isoenzyme family; conditions: cited from earlier work
DNA-PK [6] = molecular target: T1, DNA-PK; conditions: ATP-competitive; cited from earlier work

Row | Compound | melting point | IC50 (DNA-PK [4]) [nM] | other results
1 | COc1cc2ncc3c(c(-c4ccc(C#N)cc4F)nn3C)c2cc1OC [Compound 90, 4-(7,8-Dimethoxy-3-methyl-3H-pyrazolo-[3,4-c]quinolin-1-yl)-3-fluorobenzonitrile] | – | – | IC50 [1]: 100 to 500 nM
2 | O=c1cc(N2CCOCC2)oc2c(-c3ccccc3)cccc12 [LY294002] | – | – | increase in sensitivity to ionising irradiation (mammal cells): only a weak increase in sensitivity; IC50 (DNA-PK [2]): 1250 nM
3 | COc1cc2ncc3c(c(-c4ccc(C#N)cc4F)nn3C)c2cc1OC(C(N)=O)c1ccccc1 (centres unmarked) [Compound 91, 2-[1-(4-Cyano-2-fluoro-phenyl)-7-methoxy-3-methyl-3H-pyrazolo[3,4-c]-quinolin-8-yloxy]-2-phenyl-acetamide] | – | – | IC50 [3]: 100 to 500 nM
4 | COc1cc2c(cc1O)ncc1c2c(-c2ccc(C#N)cc2)nn1C [Compound 4, 4-(7-Hydroxy-8-methoxy-3-methyl-3H-pyrazolo-[3,4-c]quinolin-1-yl)-benzonitrile] | 288.9 °C | < 100 | –
5 | CCN1CCN(CC(=O)Nc2ccc(-c3cccc4c(=O)cc(N5CCOCC5)oc34)c3sc4ccccc4c23)CC1 [KU-0060648] | – | – | inhibition of kinases of the PI3K isoenzyme family [5]: potently inhibited
6 | O=c1cc(N2CCOCC2)oc2c(-c3cccc4c3sc3ccccc34)cccc12 [NU-7441] | – | – | IC50 (DNA-PK [6]): 20 nM
7 | CCN1CCN(CCNC(=O)C(Oc2cc3c(cc2OC)ncc2c3c(-c3ccc(C#N)cc3)nn2C)c2ccc(F)cc2)CC1 (centres unmarked) [Compound 48, 2-[1-(4-Cyano-phenyl)-7-methoxy-3-methyl-3H-pyrazolo-[3,4-c]quinolin-8-yloxy]-N-[2-(4-ethyl-piperazin-1-yl)ethyl]-2-(4-fluorophenyl)-acetamide] | 110 to 112 °C | 100 to 500 | –
8 | CCn1nc(-c2ccc(C#N)cc2)c2c3cc(OC)c(OC)cc3ncc21 [Compound 56, 4-(7,8-Dimethoxy-3-ethyl-3H-pyrazolo[3,4-c]quinolin-1-yl)-benzonitrile] | 227.4 °C | < 100 | –
9 | COc1cc2ncc3c(c(-c4ccc(C#N)cc4)nn3C)c2cc1OCCN(C)C [Compound 40, 4-[8-(2-Dimethylamino-ethoxy)-7-methoxy-3-methyl-3H-pyrazolo[3,4-c]quinolin-1-yl]benzonitrile] | 212.2 °C | > 100 | –
10 | COc1cc2ncc3c(c(-c4ccc(C#N)cc4)nn3C)c2cc1OC(C(N)=O)c1ccc(F)cc1 (centres unmarked) [Compound 8, 2-[1-(4-Cyanophenyl)-7-methoxy-3-methyl-3H-pyrazolo[3,4-c]quinolin-8-yloxy]-2-(4-fluorophenyl)-acetamide] | 249.2 °C | < 100 | –
11 | COc1cc2ncc3[nH]nc(-c4ccc(C#N)c(N5CCCC5)c4)c3c2cc1OC [Compound 70, 4-(7,8-Dimethoxy-3H-pyrazolo[3,4-c]quinolin-1-yl)-2-pyrrolidin-1-yl-benzonitrile] | 291 °C (dec.) | < 100 | –
12 | COc1cc2ncc3c(c(-c4ccc(C#N)cc4)nn3C)c2cc1OCc1cccc(CN)c1 [Compound 32, 4-[8-(3-Aminomethyl-benzyloxy)-7-methoxy-3-methyl-3H-pyrazolo[3,4-c]-quinolin-1-yl]benzonitrile hydrochloride] | – | 100 to 500 | –
13 | CCn1nc(-c2ccc(C#N)cc2F)c2c3cc(OC)c(OC)cc3ncc21 [Compound 57, 4-(3-Ethyl-7,8-dimethoxy-3H-pyrazolo[3,4-c]quinolin-1-yl)-3-fluorobenzonitrile] | – | 100 to 500 | –
14 | COc1cc2c(cc1OC(F)F)ncc1c2c(-c2ccc(C#N)cc2)nn1C [Compound 26, 4-(7-Difluoromethoxy-8-methoxy-3-methyl-3H-pyrazolo[3,4-c]quinolin-1-yl)-benzonitrile] | – | > 500 | –
15 | COc1cc2ncc3c(c(-c4ccc(C#N)cc4)nn3CC(=O)O)c2cc1OC [Compound 67, [1-(4-Cyanophenyl)-7,8-dimethoxypyrazolo[3,4-c]-quinolin-3-yl]acetic acid] | – | 100 to 500 | –
16 | COc1cc2ncc3c(c(-c4ccc(C#N)cc4)nn3C)c2cc1OC(F)F [Compound 16, 4-(8-Difluoromethoxy-7-methoxy-3-methyl-3H-pyrazolo[3,4-c]quinolin-1-yl)-benzonitrile] | – | < 100 | –
